Patent publication US8945595B2, “Insect repellent and attractants” (The Regents of the University of California, priority 2009, dated 2015)
Entries after “also recorded” stand apart in the source; their conditions may differ.

Columns and labels:
wild-type Drosophila [1] = experiment: T-maze assay, avoidance to Drosophila stress odour (dSO); type: in vivo; settings: odourant added to dSO
Protocol: T-maze behavior assay: a, Mean Preference Index (PI) of wild-type flies, given a choice between room air in 15 ml tube and either 0.1 ml of pure CO2 in a 15 ml tube (CO2), or binary mixtures of 0.1 ml pure CO2 and 1-hexanol (CO2+6ol) at 10^−1 dilution or 2,3-butanedione (CO2+d4on) at 10^−2 dilution, also in 15 ml tubes (see Methods). b, Mean PI of mutant flies given choices as in a. c, Mean PI of wild-type flies given choices between room air and odour collected from 70 untreated flies (mock), or 70 vortexed “emitter” flies of Drosophila stress odour (dSO), or mixtures of dSO with indicated odourants. n=6-9 trials (˜40 flies each), error bars=s.e.m. (T-test, *P<0.0001, **P<0.005, ***P<0.05).
T-maze behavioral testing using Drosophila stress odour, CO2, and mixtures were using techniques known in the art, with some modifications. In particular, the entire headspace from 15 ml capped “emitter” or “mock” fly tubes was withdrawn using fresh syringes and needles and infused into fresh capped 15 ml plastic tubes immediately prior to use in the T-maze. […] The avoidance response was calculated as a Preference Index (PI)=(number of flies in test arm−number of flies in control arm)/(total number of flies in assay). […] The avoidance response was calculated as a Preference Index (PI)=(number of flies in test arm−number of flies in control arm)/(total number of flies in assay). […]

Or83b2 mutant flies = experiment: T-maze choice assay, avoidance behavior to CO2, Or83b2 mutant flies; type: in vivo, Drosophila; settings: odourant with CO2
Protocol: (§1) (a) A t-maze is used to show preference to a test odor or to a solvent. Flies are starved 24 hrs prior to assay. All assays performed for 1-min in the dark. A negative preference index indicates avoidance. (a) Flies in a T-maze were offered a choice between a 15 ml tube infused with 0.1ml of CO2 prior to start of assay, and another that was infused with air. (b) wildtype and Or83b−/− flies were presented with CO2, a mixture of CO2 and 2,3-butanedione (d4on), or d4on alone. (c) Flies were exposed to 10 ul d4on 10^−2 for 1 min, allowed to recover for 2 min in clean air and then assayed for avoidance to CO2. A control exposure to 1 min of 2-methylphenol (2 mpol) at 10^−2 and then a recovery period of 2 min is also assayed for avoidance behavior to CO2. (d) Flies are exposed to d4on for 1 min, allowed to recover for 2 min, and then assayed for behavior to ethyl acetate (2AC). Behavior to 2AC without pre-exposure is also measured. […]
(§2) T-maze behavioral testing using Drosophila stress odour, CO2, and mixtures were using techniques known in the art, with some modifications. […] The avoidance response was calculated as a Preference Index (PI)=(number of flies in test arm−number of flies in control arm)/(total number of flies in assay). […] The avoidance response was calculated as a Preference Index (PI)=(number of flies in test arm−number of flies in control arm)/(total number of flies in assay). […]

wild-type Drosophila [2] = experiment: T-maze choice assay, avoidance behavior to CO2, wild-type flies; type: in vivo; settings: 0.67% CO2; 1-hexanol 10^-1, 2,3-butanedione 10^-2
Protocol: as §1, §2

SMILES | avoidance behavior to dSO (Preference Index) (wild-type Drosophila [1]) | avoidance behavior to CO2 (Preference Index) (Or83b2 mutant flies) | avoidance behavior to CO2 (Preference Index) (wild-type Drosophila [2])
CC(=O)C(C)=O [2,3-butanedione] | significantly reduced avoidance behavior; also recorded: completely abolished | significantly reduced | reduction in mean avoidance behavior; also recorded: abolished
CCCCCCO [1-hexanol] | significantly reduced avoidance behavior | significantly reduced | reduction in mean avoidance behavior
